ChEMBL document CHEMBL1146055, “Arylphthalazines. Part 2: 1-(Isoquinolin-5-yl)-4-arylamino phthalazines as potent inhibitors of VEGF receptors I and II” (Bioorg Med Chem Lett, 2006)

Legend:
[1] = molecular target: Vascular endothelial growth factor receptor 2 (Homo sapiens, UniProt P35968); experiment: Inhibition of VEGFR2 by HTRF assay
[2] = molecular target: Epidermal growth factor receptor (Homo sapiens) (UniProt P00533); details: 10 uM
Description: Inhibition of EGFR at 10 uM

[3] = molecular target: Receptor-type tyrosine-protein kinase FLT3 (Homo sapiens) (UniProt P36888); experiment: Inhibition of FLT3 at 10 uM
Sequence of Receptor-type tyrosine-protein kinase FLT3 (Homo sapiens) (P36888 whole entry): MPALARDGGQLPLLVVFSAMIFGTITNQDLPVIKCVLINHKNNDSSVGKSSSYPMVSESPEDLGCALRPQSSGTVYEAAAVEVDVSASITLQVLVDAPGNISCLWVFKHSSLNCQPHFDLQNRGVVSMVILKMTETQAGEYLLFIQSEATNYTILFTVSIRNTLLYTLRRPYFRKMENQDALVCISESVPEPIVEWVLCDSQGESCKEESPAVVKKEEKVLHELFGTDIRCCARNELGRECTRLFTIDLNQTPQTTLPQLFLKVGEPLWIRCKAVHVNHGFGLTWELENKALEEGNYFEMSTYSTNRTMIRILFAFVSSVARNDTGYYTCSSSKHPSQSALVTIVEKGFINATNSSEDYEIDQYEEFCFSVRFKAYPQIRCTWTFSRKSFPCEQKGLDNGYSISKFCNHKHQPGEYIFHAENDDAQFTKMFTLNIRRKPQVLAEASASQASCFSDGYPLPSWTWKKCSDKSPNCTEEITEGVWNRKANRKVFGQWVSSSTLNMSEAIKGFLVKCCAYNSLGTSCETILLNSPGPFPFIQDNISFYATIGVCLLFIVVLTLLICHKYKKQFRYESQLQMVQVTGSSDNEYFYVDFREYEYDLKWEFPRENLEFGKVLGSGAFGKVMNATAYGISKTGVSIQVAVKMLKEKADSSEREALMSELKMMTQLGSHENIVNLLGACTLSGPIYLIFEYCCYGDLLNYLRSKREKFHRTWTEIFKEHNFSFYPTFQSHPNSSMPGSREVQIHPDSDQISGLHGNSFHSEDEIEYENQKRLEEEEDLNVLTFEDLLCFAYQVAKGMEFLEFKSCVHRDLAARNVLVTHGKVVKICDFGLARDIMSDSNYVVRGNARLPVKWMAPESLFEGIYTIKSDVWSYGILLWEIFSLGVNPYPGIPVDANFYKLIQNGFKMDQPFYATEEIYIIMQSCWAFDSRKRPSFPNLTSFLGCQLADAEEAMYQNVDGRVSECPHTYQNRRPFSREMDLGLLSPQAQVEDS

[4] = molecular target: Insulin-like growth factor 1 receptor (Homo sapiens) (UniProt P08069); experiment: Inhibition of IGF1R at 10 uM
[5] = molecular target: Insulin receptor (Homo sapiens) (UniProt P06213); experiment: Inhibition of InsR at 10 uM
[6] = molecular target: Hepatocyte growth factor receptor (Homo sapiens) (UniProt P08581); experiment: Inhibition of c-Met at 10 uM
Sequence of Hepatocyte growth factor receptor (Homo sapiens) (P08581 whole entry): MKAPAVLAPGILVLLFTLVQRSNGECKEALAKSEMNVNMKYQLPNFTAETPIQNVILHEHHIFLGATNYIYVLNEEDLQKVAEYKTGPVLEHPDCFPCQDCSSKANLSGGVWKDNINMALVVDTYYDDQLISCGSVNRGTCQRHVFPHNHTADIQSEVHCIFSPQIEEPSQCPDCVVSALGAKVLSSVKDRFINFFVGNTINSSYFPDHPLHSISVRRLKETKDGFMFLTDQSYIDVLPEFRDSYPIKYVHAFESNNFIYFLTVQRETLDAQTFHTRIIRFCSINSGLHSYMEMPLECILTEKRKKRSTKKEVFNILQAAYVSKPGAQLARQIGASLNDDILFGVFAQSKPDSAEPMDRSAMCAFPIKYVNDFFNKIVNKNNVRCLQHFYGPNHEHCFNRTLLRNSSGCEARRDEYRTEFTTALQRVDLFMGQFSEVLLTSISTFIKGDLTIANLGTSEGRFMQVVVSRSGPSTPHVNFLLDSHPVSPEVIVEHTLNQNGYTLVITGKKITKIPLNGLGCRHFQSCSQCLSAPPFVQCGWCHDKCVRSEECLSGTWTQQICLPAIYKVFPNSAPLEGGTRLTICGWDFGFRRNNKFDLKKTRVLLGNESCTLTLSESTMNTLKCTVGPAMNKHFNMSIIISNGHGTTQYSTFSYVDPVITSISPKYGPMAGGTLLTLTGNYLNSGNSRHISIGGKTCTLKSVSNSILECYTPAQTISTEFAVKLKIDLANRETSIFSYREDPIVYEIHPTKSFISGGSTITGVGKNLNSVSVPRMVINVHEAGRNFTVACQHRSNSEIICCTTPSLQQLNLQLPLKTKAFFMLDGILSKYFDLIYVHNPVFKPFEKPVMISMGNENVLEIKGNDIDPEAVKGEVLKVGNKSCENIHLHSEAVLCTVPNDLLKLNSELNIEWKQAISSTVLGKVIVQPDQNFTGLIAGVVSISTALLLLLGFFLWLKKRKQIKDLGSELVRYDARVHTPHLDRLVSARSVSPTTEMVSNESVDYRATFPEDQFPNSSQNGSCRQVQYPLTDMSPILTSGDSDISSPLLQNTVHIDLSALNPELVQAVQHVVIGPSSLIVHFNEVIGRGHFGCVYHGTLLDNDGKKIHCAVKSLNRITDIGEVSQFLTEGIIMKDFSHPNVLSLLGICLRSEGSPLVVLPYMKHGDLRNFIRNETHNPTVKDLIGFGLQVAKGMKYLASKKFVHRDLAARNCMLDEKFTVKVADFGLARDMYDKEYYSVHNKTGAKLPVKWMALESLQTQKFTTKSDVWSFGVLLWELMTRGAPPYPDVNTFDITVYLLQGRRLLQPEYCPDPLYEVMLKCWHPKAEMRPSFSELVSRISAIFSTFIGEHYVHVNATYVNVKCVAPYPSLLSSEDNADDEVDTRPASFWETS

Sequence of Vascular endothelial growth factor receptor 2 (P35968 whole entry): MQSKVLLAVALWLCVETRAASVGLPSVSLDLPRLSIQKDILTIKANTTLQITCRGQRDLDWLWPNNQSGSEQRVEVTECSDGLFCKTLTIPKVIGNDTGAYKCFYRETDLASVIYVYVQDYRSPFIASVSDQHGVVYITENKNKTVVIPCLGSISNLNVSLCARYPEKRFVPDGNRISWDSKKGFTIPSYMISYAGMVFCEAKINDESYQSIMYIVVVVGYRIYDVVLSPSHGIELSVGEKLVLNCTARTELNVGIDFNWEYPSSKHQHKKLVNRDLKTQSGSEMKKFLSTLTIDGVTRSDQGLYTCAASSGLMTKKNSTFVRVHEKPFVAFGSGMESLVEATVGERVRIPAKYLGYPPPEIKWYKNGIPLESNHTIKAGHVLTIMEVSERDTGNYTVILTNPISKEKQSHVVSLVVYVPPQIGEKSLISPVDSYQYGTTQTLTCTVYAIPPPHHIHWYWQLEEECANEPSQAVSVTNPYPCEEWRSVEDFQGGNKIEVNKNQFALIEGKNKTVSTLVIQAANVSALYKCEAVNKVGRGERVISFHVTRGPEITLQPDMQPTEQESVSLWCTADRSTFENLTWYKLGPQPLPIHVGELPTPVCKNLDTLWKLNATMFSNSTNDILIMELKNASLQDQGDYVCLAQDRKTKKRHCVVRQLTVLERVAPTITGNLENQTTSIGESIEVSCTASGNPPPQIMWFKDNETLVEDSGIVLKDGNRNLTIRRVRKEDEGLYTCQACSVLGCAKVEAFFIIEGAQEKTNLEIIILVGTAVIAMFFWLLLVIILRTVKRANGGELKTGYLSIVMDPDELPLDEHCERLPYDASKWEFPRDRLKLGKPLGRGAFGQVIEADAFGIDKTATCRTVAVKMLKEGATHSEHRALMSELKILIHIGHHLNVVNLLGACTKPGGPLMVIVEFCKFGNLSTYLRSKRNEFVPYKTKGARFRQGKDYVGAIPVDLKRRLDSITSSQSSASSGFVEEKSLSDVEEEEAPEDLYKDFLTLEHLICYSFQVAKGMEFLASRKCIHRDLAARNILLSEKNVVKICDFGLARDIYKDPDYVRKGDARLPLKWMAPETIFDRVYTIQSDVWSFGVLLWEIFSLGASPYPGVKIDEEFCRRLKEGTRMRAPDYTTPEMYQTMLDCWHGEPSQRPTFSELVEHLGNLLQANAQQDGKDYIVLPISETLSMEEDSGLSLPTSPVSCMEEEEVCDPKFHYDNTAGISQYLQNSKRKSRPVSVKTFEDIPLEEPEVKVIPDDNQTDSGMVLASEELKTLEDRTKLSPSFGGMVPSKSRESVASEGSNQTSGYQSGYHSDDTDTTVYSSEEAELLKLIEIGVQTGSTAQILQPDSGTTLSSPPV
Sequence of Epidermal growth factor receptor (Homo sapiens) (P00533 whole entry): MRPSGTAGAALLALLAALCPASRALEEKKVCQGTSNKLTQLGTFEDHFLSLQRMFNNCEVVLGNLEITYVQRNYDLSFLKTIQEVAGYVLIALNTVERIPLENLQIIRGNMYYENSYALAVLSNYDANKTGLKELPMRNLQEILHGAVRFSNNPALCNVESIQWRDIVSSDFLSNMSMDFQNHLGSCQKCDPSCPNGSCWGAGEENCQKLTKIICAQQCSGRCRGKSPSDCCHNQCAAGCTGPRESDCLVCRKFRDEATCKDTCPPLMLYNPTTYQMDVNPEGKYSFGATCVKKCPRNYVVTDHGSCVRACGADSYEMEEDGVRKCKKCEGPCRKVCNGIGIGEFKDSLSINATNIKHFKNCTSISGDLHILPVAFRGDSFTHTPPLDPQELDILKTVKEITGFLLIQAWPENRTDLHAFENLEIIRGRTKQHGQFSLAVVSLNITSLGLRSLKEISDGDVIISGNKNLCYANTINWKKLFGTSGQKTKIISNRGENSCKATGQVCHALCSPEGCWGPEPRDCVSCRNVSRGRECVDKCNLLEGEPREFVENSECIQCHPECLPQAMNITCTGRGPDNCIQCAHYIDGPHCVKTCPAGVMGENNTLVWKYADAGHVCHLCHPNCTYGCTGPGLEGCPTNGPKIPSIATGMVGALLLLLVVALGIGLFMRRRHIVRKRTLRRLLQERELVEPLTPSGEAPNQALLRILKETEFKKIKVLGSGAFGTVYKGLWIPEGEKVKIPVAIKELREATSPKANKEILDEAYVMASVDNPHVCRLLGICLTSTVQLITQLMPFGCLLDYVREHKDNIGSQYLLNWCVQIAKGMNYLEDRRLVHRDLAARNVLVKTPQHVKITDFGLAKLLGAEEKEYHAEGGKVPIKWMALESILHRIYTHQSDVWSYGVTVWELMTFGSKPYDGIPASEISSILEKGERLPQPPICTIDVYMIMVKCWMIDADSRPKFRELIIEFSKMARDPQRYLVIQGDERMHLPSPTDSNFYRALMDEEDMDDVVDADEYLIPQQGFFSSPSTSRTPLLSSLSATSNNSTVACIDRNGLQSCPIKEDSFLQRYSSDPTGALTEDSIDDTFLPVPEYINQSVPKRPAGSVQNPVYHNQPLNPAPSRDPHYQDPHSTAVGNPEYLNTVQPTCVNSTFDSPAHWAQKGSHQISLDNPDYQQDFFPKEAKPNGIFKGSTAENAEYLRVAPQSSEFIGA

IC50 [1] [µM] | inhibition [2] [%] | inhibition [3] [%] | inhibition [4] [%] | inhibition [5] [%] | inhibition [6] [%] | SMILES
> 10 |  |  |  |  |  | Cn1cc(-c2nnc(Nc3ccc(Cl)cc3)c3ccccc23)cn1
0.048 | 13 | 33 | 25 | 10 | 2 | Clc1ccc(Nc2nnc(-c3cccc4cnccc34)c3ccccc23)cc1
> 10 |  |  |  |  |  | Clc1ccc(Nc2nnc(-c3cn[nH]c3)c3ccccc23)cc1
